Results from patent publication US20240150293A1, “SPIROCYCLOHEXANE DERIVATIVES, PHARMACEUTICAL COMPOSITIONS CONTAINING THEM AND THEIR USES AS ANTI-APOPTOTIC INHIBITORS” (LES LABORATOIRES SERVIER, priority 2021, published 2024).
Like-named read-outs stand apart in the source and are kept apart here.

Tests used:
[1] = molecular target: Cy5-labelled Mcl1 (amino acids 171-321) C286S protein (UniProtKB Q07820) (Homo sapiens (Human), UniProt Q07820, C286S); experiment: Inhibition of Mcl-1 by the fluorescence quenching assay (Example A, Method B); type: binding
How it was run: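 Eleven-point compound series incubated 2 h at room temperature with 1 nM Cy5-tagged protein and quencher-labelled PUMA peptide at 10, 20 or 400 nM in HEPES/NaCl/Tween 20, pH 7.4, 5% DMSO. IC50 for 50% fluorescence increase by 4-parameter fit, then Ki derived (complete cKi or estimated eKi).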

[2] = test system: H929 multiple myeloma tumor line; experiment: In vitro cytotoxicity, MTT assay (Example B, Method A); type: cell-based; settings: H929 cells, 48 hours exposure, read-out: C50
Experimental: The cytotoxicity studies were carried out on the H929 multiple myeloma tumor line.
The cells are distributed onto microplates and exposed to the test compounds for 48 hours. The cell viability is then quantified by a colorimetric assay, the Microculture Tetrazolium Assay (Carmichael et al, Cancer Res. 1987, 47, 939-942).
The results are expressed in C50 which means concentration corresponding to […] of effect/inhibition.

Chain of Cy5-labelled Mcl1 (amino acids 171-321) C286S protein (Q07820 171-321 C286S): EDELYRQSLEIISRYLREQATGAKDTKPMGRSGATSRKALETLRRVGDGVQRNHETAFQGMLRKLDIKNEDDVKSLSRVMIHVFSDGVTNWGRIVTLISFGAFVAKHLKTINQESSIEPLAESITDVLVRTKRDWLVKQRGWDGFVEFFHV

Row | Structure (SMILES) | Ki [1] | IC50 ([2]; Homo sapiens, NCI-H929, 48 h) | IC50 [2]
1 | C[C@@H](COc1ccnc2c1CCC2)C[C@H]1Cc2ccccc2[C@]12CC[C@@](Nc1cccc(Cl)c1)(C(=O)O)CC2 [Example 599, (1r,2′S,4S)-4-(3-chloroanilino)-2′-{(2R)-3-[(6,7-dihydro-5H-cyclopenta[b]pyridin-4-yl)oxy]-2-methylpropyl}-2′,3′-dihydrospiro[cyclohexane-1,1′-indene]-4-carboxylic acid] | 1.05 nM | 237 nM | –
2 | CC(O)c1ccc2c(c1)[C@]1(CC[C@@](Nc3cccc(Cl)c3)(C(=O)O)CC1)[C@@H](C[C@@H](C)COc1ccnc3c1[C@H](C)CC[C@H]3F)C2 (single isomer, unassigned) [Example 864] | 0.374 nM | – | 183 nM
3 | O=C(O)[C@]1(Nc2cccc(Cl)c2)CC[C@@]2(CC1)c1ccccc1CC2CC(COc1ccnc2c1CCC2)COc1ccnc2c1CCC2 (single isomer, unassigned) [Example 498, (1r,4r)-4-(3-chloroanilino)-2′-(3-[(6,7-dihydro-5H-cyclopenta[b]pyridin-4-yl)oxy]-2-{[(6,7-dihydro-5H-cyclopenta[b]pyridin-4-yl)oxy]methyl}propyl)-2′,3′-dihydrospiro[cyclohexane-1,1′-indene]-4-carboxylic acid] | 0.769 nM | – | 436 nM
4 | COCC(COc1ccnc2c1CCC2)CC1Cc2ccccc2[C@]12CC[C@@](Nc1cccc(Cl)c1)(C(=O)O)CC2 (some centres unmarked) [Example 494, (1r,4r)-4-(3-chloroanilino)-2′-(2-{[(6,7-dihydro-5H-cyclopenta[b]pyridin-4-yl)oxy]methyl}-3-methoxypropyl)-2′,3′-dihydrospiro[cyclohexane-1,1′-indene]-4-carboxylic acid] | 3.62 nM | 808 nM | –
5 | C[C@@H](COc1ccnc2c1[C@@H](C)CCC2)C[C@H]1Cc2cc3c(cc2[C@]12CC[C@@](Nc1cccc(Cl)c1)(C(=O)O)CC2)OCO3 [Example 842, (1r,4S,6′S)-4-(3-chloroanilino)-6′-[(2R)-2-methyl-3-{[(5S)-5-methyl-5,6,7,8-tetrahydroquinolin-4-yl]oxy}propyl]-6′,7′-dihydro-2′H-spiro[cyclohexane-1,5′-indeno[5,6-d][1,3]dioxole]-4-carboxylic acid] | 1.55 nM | 81 nM | –
6 | C[C@@H](COc1ccnc2c1[C@H](C)CCC2)C[C@H]1Cc2ccccc2[C@]12CC[C@@](Nc1cc(Cl)ccc1F)(C(=O)O)CC2 [Example 705, (1r,2′S,4S)-4-(5-chloro-2-fluoroanilino)-2′-[(2R)-2-methyl-3-{[(5R)-5-methyl-5,6,7,8-tetrahydroquinolin-4-yl]oxy}propyl]-2′,3′-dihydrospiro[cyclohexane-1,1′-indene]-4-carboxylic acid] | 27.7 nM | 2750 nM | –
7 | CC[C@@H]1CC[C@@H](F)c2nccc(OC[C@H](C)C[C@H]3Cc4ccccc4[C@]34CC[C@@](Nc3cccc(Cl)c3)(C(=O)O)CC4)c21 [Example 697, (1r,2′S,4S)-4-(3-chloroanilino)-2′-[(2R)-3-{[(5R,8R)-5-ethyl-8-fluoro-5,6,7,8-tetrahydroquinolin-4-yl]oxy}-2-methylpropyl]-2′,3′-dihydrospiro[cyclohexane-1,1′-indene]-4-carboxylic acid] | 8.28 nM | 374 nM | –
8 | C[C@@H](COc1ccnc2c1[C@H](C)CCC2)C[C@H]1Cc2ccccc2[C@]12CC[C@@](Nc1cccc(C#N)c1)(C(=O)O)CC2 [Example 716, (1r,2′S,4S)-4-(3-cyanoanilino)-2′-[(2R)-2-methyl-3-{[(5R)-5-methyl-5,6,7,8-tetrahydroquinolin-4-yl]oxy}propyl]-2′,3′-dihydrospiro[cyclohexane-1,1′-indene]-4-carboxylic acid] | 4.71 nM | 311 nM | –
9 | C[C@@H](COc1ccnc2c1CCC2O)C[C@H]1Cc2ccccc2[C@]12CC[C@@](Nc1cccc(Cl)c1)(C(=O)O)CC2 (single isomer, unassigned) [Example 609] | 2.61 nM | – | 629 nM
10 | CC(=O)c1ccc2c(c1)[C@]1(CC[C@@](Nc3cccc(Cl)c3)(C(=O)O)CC1)C(C[C@@H](C)COc1ccnc3c1[C@H](C)CCC3)=C2 [Example 856, (1r,4R)-6′-acetyl-4-(3-chloroanilino)-2′-[(2R)-2-methyl-3-{[(5R)-5-methyl-5,6,7,8-tetrahydroquinolin-4-yl]oxy}propyl]spiro[cyclohexane-1,1′-indene]-4-carboxylic acid] | 0.864 nM | 74.8 nM | –
11 | CC(O)c1ccc2c(c1)[C@]1(CC[C@@](Nc3cccc(Cl)c3)(C(=O)O)CC1)[C@H](C[C@@H](C)COc1ccnc3ccsc13)C2 (stereo partly drawn) [Example 721, (1r,2′R,4R)-4-(3-chloroanilino)-6′-(1-hydroxyethyl)-2′-{(2R)-2-methyl-3-[(thieno[3,2-b]pyridin-7-yl)oxy]propyl}-2′,3′-dihydrospiro[cyclohexane-1,1′-indene]-4-carboxylic acid] | 2.12 nM | 670 nM | –
12 | C[C@@H](COc1ccnc2c1CCC2F)C[C@H]1Cc2ccccc2[C@]12CC[C@@](Nc1cccc(Cl)c1)(C(=O)O)CC2 (stereo partly drawn) [Example 603, (1r,2′S,4S)-4-(3-chloroanilino)-2′-{(2R)-3-[(7-fluoro-6,7-dihydro-5H-cyclopenta[b]pyridin-4-yl)oxy]-2-methylpropyl}-2′,3′-dihydrospiro[cyclohexane-1,1′-indene]-4-carboxylic acid] | 8 nM | 1110 nM | –
13 | COCCOc1ccc2c(c1)[C@]1(CC[C@@](Nc3cccc(Cl)c3)(C(=O)O)CC1)[C@H](C[C@@H](C)COc1ccnc3ccsc13)C2 [Example 729, (1r,2′R,4R)-4-(3-chloroanilino)-6′-(2-methoxyethoxy)-2′-{(2R)-2-methyl-3-[(thieno[3,2-b]pyridin-7-yl)oxy]propyl}-2′,3′-dihydrospiro[cyclohexane-1,1′-indene]-4-carboxylic acid] | 7.68 nM | 864 nM | –
14 | CC1CCN(C)c2nccc(OC[C@H](C)C[C@H]3Cc4ccccc4[C@]34CC[C@@](Nc3cccc(Cl)c3)(C(=O)O)CC4)c21 (single isomer, unassigned) [Example 643] | 26.8 nM | 1230 nM | –
15 | C[C@@H](COc1ccnc2c1[C@@H](C)CC[C@@H]2C)C[C@H]1Cc2ccccc2[C@]12CC[C@@](Nc1cccc(Cl)c1)(C(=O)O)CC2 [Example 661, (1r,2′S,4S)-4-(3-chloroanilino)-2′-[(2R)-3-{[(5S,8S)-5,8-dimethyl-5,6,7,8-tetrahydroquinolin-4-yl]oxy}-2-methylpropyl]-2′,3′-dihydrospiro[cyclohexane-1,1′-indene]-4-carboxylic acid] | 80.7 nM | 4970 nM | –
16 | Cc1cc(Cl)cc(N[C@]2(C(=O)O)CC[C@]3(CC2)c2ccccc2C[C@@H]3C[C@@H](C)COc2ccnc3c2[C@H](C)CCC3)c1 [Example 710, (1r,2′S,4S)-4-(3-chloro-5-methylanilino)-2′-[(2R)-2-methyl-3-{[(5R)-5-methyl-5,6,7,8-tetrahydroquinolin-4-yl]oxy}propyl]-2′,3′-dihydrospiro[cyclohexane-1,1′-indene]-4-carboxylic acid] | 44.1 nM | 3280 nM | –
17 | C[C@@H](COc1ccnc2c1[C@@H](C)CC[C@@H]2F)C[C@H]1Cc2ccccc2[C@]12CC[C@@](Nc1cccc(Cl)c1)(C(=O)O)CC2 [Example 690, (1r,2′S,4S)-4-(3-chloroanilino)-2′-[(2R)-3-{[(5S,8S)-8-fluoro-5-methyl-5,6,7,8-tetrahydroquinolin-4-yl]oxy}-2-methylpropyl]-2′,3′-dihydrospiro[cyclohexane-1,1′-indene]-4-carboxylic acid] | 29.5 nM | 1410 nM | –
18 | Cc1cccc2c1CC(C[C@@H](C)COc1ccnc3c1[C@H](C)CCC3)[C@]21CC[C@](Nc2cccc(Cl)c2)(C(=O)O)CC1 (single isomer, unassigned) [Example 754] | 1.23 nM | 96.6 nM | –
19 | C[C@@H]1CCCc2nccc(OCC(CC3=Cc4ccccc4[C@]34CC[C@@](Nc3cccc(Cl)c3)(C(=O)O)CC4)C(F)F)c21 (single isomer, unassigned) [Example 517] | 4.98 nM | – | 550 nM
20 | C[C@@H](COc1ccnc2c1[C@H](C)CCC2)CC1=Cc2ccccc2[C@]12CC[C@@](Nc1cccc(Cl)c1)(C(=O)O)CC2 [Example 646, (1r,4R)-4-(3-chloroanilino)-2′-[(2R)-2-methyl-3-{[(5R)-5-methyl-5,6,7,8-tetrahydroquinolin-4-yl]oxy}propyl]spiro[cyclohexane-1,1′-indene]-4-carboxylic acid] | 0.593 nM | 148 nM | –
21 | C[C@@H](COc1ccnc2c1[C@@H](C(F)(F)F)CCC2)C[C@H]1Cc2ccccc2[C@]12CC[C@@](Nc1cccc(Cl)c1)(C(=O)O)CC2 [Example 698, (1r,2′S,4S)-4-(3-chloroanilino)-2′-[(2R)-2-methyl-3-{[(5S)-5-(trifluoromethyl)-5,6,7,8-tetrahydroquinolin-4-yl]oxy}propyl]-2′,3′-dihydrospiro[cyclohexane-1,1′-indene]-4-carboxylic acid] | 65.6 nM | 5430 nM | –
22 | C[C@@H]1CCCc2nccc(OCC(F)CC3Cc4ccccc4[C@]34CC[C@@](Nc3cccc(Cl)c3)(C(=O)O)CC4)c21 (single isomer, unassigned) [Example 508] | 20.3 nM | – | 3640 nM
